Experimental findings from patent publication US11851413B1, “1,3-benzothiazol-2-yl-N'-[(naphthalene-1-carbonyl)oxy]ethanimidamide as an antitumor and antimicrobial compound” (KING FAISAL UNIVERSITY, priority 2023, dated 2023) are described below.

In data set [1] the test system is human osteosarcoma cells (MG-63). Briefly: Cytotoxicity by SRB assay, MG-63 cells. It is filed as cell-based. To be noted: 0.01 μM to 100 μM, 72 h. How it is done:
(§1) The human prostate cancer cells (PC3) and human osteosarcoma cells (MG-63) were obtained from Nawah Scientific Inc. (Mokatam, Cairo, Egypt) and cultured in DMEM (Dulbecco's modified eagle's medium), Gibco, USA, supplemented with fetal bovine serum (FBS) at a concentration of 10% and 100 U/mL of penicillin and streptomycin (PS). The Cells were incubated at 37° C. in a humidified environment that contained 5% CO2. Cells were seeded in 96-well plates as aliquots of 100 μL cell suspension and incubated in a complete media for 24 h. afterward, cells were treated with N′-(1-naphthoyloxy)-2-(benzo[d]thiazol-2-yl)acetimidamide at diverse concentrations ranging from 0.01 μM to 100 μM for 72 h. Then, cells were fixed at 4° C. for one hour with 150 μL of 10% trichloroacetic acid (TCA). After washing the cells five times with distilled water, 70 μL of sulforhodamine (SRB) solution (0.4% w/v) was added and incubated for 10 min at room temperature in a dark place. […] Then, 150 μL of Tris pH 10.5 (10 mM) was added, and the absorbance was measured at 540 nm using a BMG LABTECH®-FLUOstar Omega microplate reader (Ortenberg, Germany). Half maximal inhibitory concentrations (IC50) values were calculated for each experiment using GraphPad Prism 6 software. […] The inhibition was calculated using the following equation: Inhibition%=100−Average Viability
In general terms: The SRB assay estimates cell density from bound dye.

Data set [2] has as its system human prostate cancer cells (PC3). The data set can be described thus: Cytotoxicity by SRB assay, PC3 cells. It is filed as cell-based. To be noted: 0.01 μM to 100 μM, 72 h. As for the experimental part: as §1

Usually melting point stands for the temperature, or range, at which the solid turns liquid.

In the case of `N/C(Cc1nc2ccccc2s1)=N\OC(=O)c1cccc2ccccc12` [1,3-benzothiazol-2-yl-N′-[(naphthalene-1-carbonyl)oxy]ethanimidamide], the melting point was in the range of 191 to 193 °C. Also, in data set [1], the “antiproliferative activity against osteosarcoma (MG-63) cells” value is on record as “excellent antiproliferative activities”. Also, the “antiproliferative activity against prostate cancer cells (PC3)” value in data set [2] was “excellent antiproliferative activities”.
